These results are taken from US4623662A, “Antiatherosclerotic ureas and thioureas” (American Cyanamid Company, priority 1985, dated 1986).

The test system of this assay is cholesterol absorption. Put plainly: Inhibition of cholesterol absorption in rats fed 1% cholesterol:0.5% cholic acid diet. The format is in vivo, male Sprague-Dawley rats. To be noted: rat, 2 weeks; for response vs control in vivo at 0.003 % / response vs control in vivo at 0.001 % / response vs control in vivo at 0.03 % / response vs control in vivo at 0.01 %: po, 336 h; for response vs control in vivo at 0.001 %: dose .001% of the diet; for response vs control in vivo at 0.03 %: dose .03% of the diet; for response vs control in vivo at 0.01 %: dose .01% of the diet. On the procedure: Inhibition of cholesterol absorption was determined by feeding male Sprague-Dawley rats, weighing 150-170 g, a 1% cholesterol:0.5% cholic acid diet for 2 weeks. The diet also contained compounds being tested at a dose of 0.001, 0.003, 0.01, or 0.03% of the diet. Control rats were fed the same diet without any compound. At the end of the test, the rats were sacrificed by decapitation. Blood was collected, centrifuged at […] for 10 minutes at 4° C.; and the serum was then analyzed for cholesterol and triglycerides enzymatically by the method of Trinder, P., Analyst, 77, 321 (1952) on a Centrifichem 400 analyzer. Livers were removed, a 0.4 g sample was taken from the center of the large lobe, and the sample was subjected to saponification using 25% saturated potassium hydroxide in ethanol. The resulting neutral sterols were extracted with petroleum ether and the extract analyzed for cholesterol. The effectiveness of the compound in inhibiting cholesterol absorption was measured by the lowering of either serum cholesterol or liver cholesterol relative the values for control rats.
Compounds which produced statistically significant inhibition of cholesterol absorption are considered to be active. Liver sterol (LS) and serum sterol (SS) values are expressed as a percentage of control values.

Setting [1] is: dose .003% of the diet, read-out: LS (liver sterol), percentage of control values.
Where [2] appears, read: dose .003% of the diet, read-out: SS (serum sterol), percentage of control values.
Setting [3] is: read-out: LS (liver sterol), percentage of control values.
The mark [4] stands for this setting: read-out: SS (serum sterol), percentage of control values.

Read-outs that look alike come from different tables or passages of the source.

As to `CCCCCCCN(Cc1ccc(CCC(C)CC)cc1)C(=O)Nc1c(F)cc(F)cc1F` (stereo not drawn) [1-(n-Heptyl)-1-[4-(3-methylpentyl)benzyl]-3-(2,4,6-trifluorophenyl)urea], the response vs control in vivo at 0.003 % runs as follows: under setting [1], 46%; under setting [2], 36%.

In the case of `CCCCCCCN(Cc1ccc(CCC(C)CC)cc1)C(=O)Nc1c(C)cc(Cl)cc1C` (stereo not drawn) [1-(n-Heptyl)-1-[4-(3-methylpentyl)benzyl]-3-(4-chloro-2,6-dimethylphenyl)urea], the response vs control in vivo at 0.003 % runs as follows: under setting [1], 45%; under setting [2], 38%.

Take `CC(C)CCCCN(Cc1ccc(CCC(C)C)cc1)C(=O)Nc1c(F)cc(F)cc1F` [1-(Isoheptyl)-1-[4-(isopentyl)benzyl]-3-(2,4,6-trifluorophenyl)urea]: the response vs control in vivo at 0.001 % under setting [3] was 45% and the response vs control in vivo at 0.001 % under setting [4] amounted to 33%.

As for `CC(C)(C)CCN(Cc1ccc(Cl)cc1)C(=O)Nc1ccc(C(F)(F)F)cc1` [1-(3,3-Dimethylbutyl)-1-(4-chlorobenzyl)-3-(4-trifluoromethylphenyl)urea], the response vs control in vivo at 0.03 % reads like this: under setting [3], 70%; under setting [4], 85%.

As for `CC(C)CCCCN(Cc1ccc(CCC(C)C)cc1)C(=O)Nc1ccc(F)cc1F` [1-(Isoheptyl)-1-[4-(isopentyl)benzyl]-3-(2,4-difluorophenyl)urea], the response vs control in vivo at 0.003 % turned out to be 45% under setting [1] and 24% under setting [2].

`CCCCCCCN(Cc1ccc(CC(CC)CCCC)cc1)C(=O)Nc1ccc(F)cc1F` (stereo not drawn) [1-(n-Heptyl)-1-[4-(2-ethylhexyl)benzyl]-3-(2,4-difluorophenyl)urea]: the response vs control in vivo at 0.003 % under setting [1] was found to be 56% and the response vs control in vivo at 0.003 % under setting [2] was found to be 63%.

For `CCCCCCCN(Cc1ccc(CC(C)CCC)cc1)C(=O)Nc1c(F)cc(F)cc1F` (stereo not drawn) [1-(n-Heptyl)-1-[4-(2-methylpentyl)benzyl]-3-(2,4,6-trifluorophenyl)urea], the response vs control in vivo at 0.001 % is 75% under setting [3] and 93% under setting [4].

For the compound `CCCCCCCN(Cc1ccc(CCOC(C)=O)cc1)C(=O)Nc1ccc(F)cc1F` [1-(n-Heptyl)-1-[4-(2-acetoxyethyl)benzyl]-3-(2,4-difluorophenyl)urea], the response vs control in vivo at 0.003 % under setting [1] turned out to be 60% and the response vs control in vivo at 0.003 % under setting [2] came to 55%.

For `CCCCCCCN(Cc1ccc(CCC(C)CC)cc1)C(=O)Nc1ccc(F)cc1F` (stereo not drawn) [1-(n-Heptyl)-1-[4-(3-methylpentyl)benzyl]-3-(2,4-difluorophenyl)urea], the response vs control in vivo at 0.001 % is, setting by setting: under setting [3], 89%; under setting [4], 72%.

Take `CCCCCCCN(Cc1ccc(CC2CCCC2)cc1)C(=O)Nc1c(C)cc(Cl)cc1C` [1-(n-Heptyl)-1-[4-(cyclopentylmethyl)benzyl]-3-(4-chloro-2,6-dimethylphenyl)urea]: the response vs control in vivo at 0.003 % runs as follows: under setting [1], 53%; under setting [2], 45%.

As to `Cc1cc(Cl)cc(C)c1NC(=O)N(CCCCC(C)C)Cc1ccc(CCC(C)C)cc1` [1-(Isoheptyl)-1-[4-(isopentyl)benzyl]-3-(4-chloro-2,6-dimethylphenyl)urea], the response vs control in vivo at 0.001 % turned out to be 40% under setting [3] and 40% under setting [4].

As to `CCCCCCCN(Cc1ccc(OCCC(C)C)cc1)C(=O)Nc1ccc(F)cc1F` [1-(n-Heptyl)-1-[4-(isopentyloxy)benzyl]-3-(2,4-difluorophenyl)urea], the response vs control in vivo at 0.001 % stood at 61% under setting [3] and 69% under setting [4].

For the compound `CCCCCCCN(Cc1ccc(CCO)cc1)C(=O)Nc1ccc(F)cc1F` [1-(n-Heptyl)-1-[4-(2-hydroxyethyl)benzyl]-3-(2,4-difluorophenyl)urea], the response vs control in vivo at 0.003 % under setting [1] turned out to be 59% and the response vs control in vivo at 0.003 % under setting [2] turned out to be 52%.

For the compound `CCCCCCCN(Cc1ccc(CCCC(C)C)cc1)C(=O)Nc1c(C)cc(Cl)cc1C` [1-(n-Heptyl)-1-[4-(isohexyl)benzyl]-3-(4-chloro-2,6-dimethylphenyl)urea], the response vs control in vivo at 0.001 % under setting [3] came out at 73% and the response vs control in vivo at 0.001 % under setting [4] turned out to be 64%.

`CCCCCCCN(Cc1ccc(CC(C)(C)C)cc1)C(=O)Nc1c(C)cc(Cl)cc1C` [1-(n-Heptyl)-1-[4-(2,2-dimethylpropyl)phenylmethyl]-3-(4-chloro-2,6-dimethylphenyl)urea]: the response vs control in vivo at 0.003 % worked out at 54% under setting [1] and 41% under setting [2].

Consider `CCCCCCCN(Cc1ccc(CC(C)CCC)cc1)C(=O)Nc1c(C)cc(Cl)cc1C` (stereo not drawn) [1-(n-Heptyl)-1-[4-(2-methylpentyl)benzyl]-3-(4-chloro-2,6-dimethylphenyl)urea], for which the response vs control in vivo at 0.001 % was 56% under setting [3] and 61% under setting [4].

As for `CCCCCCCN(Cc1ccc(C(C)CCCC(C)C)cc1)C(=O)Nc1c(C)cc(Cl)cc1C` (stereo not drawn) [1-(n-Heptyl)-1-[4-(1,5-dimethylhexyl)benzyl]-3-(4-chloro-2,6-dimethylphenyl)urea], the response vs control in vivo at 0.001 % under setting [3] is 100% and the response vs control in vivo at 0.001 % under setting [4] turned out to be 94%.

With `CCCCCCCN(Cc1ccc(CCCC)cc1)C(=O)Nc1ccc(C(F)(F)F)cc1` [1-(n-Heptyl)-1-[4-(n-butyl)benzyl]-3-(4-trifluoromethylphenyl)urea], the response vs control in vivo at 0.03 % reads like this: under setting [3], 88%; under setting [4], 79%.

Regarding `CCCCCCCN(Cc1ccc(CCS(=O)(=O)C(C)C)cc1)C(=O)Nc1c(C)cc(Cl)cc1C` [1-(n-Heptyl)-1-[4-(2-isopropylsulfonylethyl)benzyl]-3-(4-chloro-2,6-dimethylphenyl)urea], the response vs control in vivo at 0.003 % under setting [1] worked out at 54% and the response vs control in vivo at 0.003 % under setting [2] was 57%.

On to `CCCCc1ccc(CN(CCC(C)(C)C)C(=O)Nc2ccc(C(F)(F)F)cc2)cc1` [1-(3,3-Dimethylbutyl)-1-[4-(n-butyl)benzyl]-3-(4-trifluoromethylphenyl)urea], for which the response vs control in vivo at 0.03 % by setting is: under setting [3], 86%; under setting [4], 100%.

`CCCCCCCN(Cc1ccc(CC[S+]([O-])C(C)C)cc1)C(=O)Nc1c(C)cc(Cl)cc1C` (stereo not drawn) [1-(n-Heptyl)-1-[4-(2-isopropylsulfinylethyl)benzyl]-3-(4-chloro-2,6-dimethylphenyl)urea]: the response vs control in vivo at 0.003 % is, setting by setting: under setting [1], 54%; under setting [2], 45%.

`CCCCCCCN(Cc1ccc(CCCCSC(C)C)cc1)C(=O)Nc1c(C)cc(Cl)cc1C` [1-(n-Heptyl)-1-[4-(4-isopropylthiobutyl)benzyl]-3-(4-chloro-2,6-dimethylphenyl)urea]: the response vs control in vivo at 0.01 % reads like this: under setting [3], 45%; under setting [4], 49%.

In the case of `CCCCCCCN(Cc1ccc(CCCC(C)C)cc1)C(=O)Nc1c(F)cc(F)cc1F` [1-(n-Heptyl)-1-[4-(isohexyl)benzyl]-3-(2,4,6-trifluorophenyl)urea], the response vs control in vivo at 0.001 % stood at 78% under setting [3] and 77% under setting [4].

With `CCCCCCCN(Cc1ccc(CCS(=O)(=O)C(C)C)cc1)C(=O)Nc1ccc(F)cc1F` [1-(n-Heptyl)-1-[4-(2-isopropylsulfonylethyl)benzyl]-3-(2,4-difluorophenyl)urea], the response vs control in vivo at 0.003 % reads like this: under setting [1], 68%; under setting [2], 94%.

In the case of `CCCCCCCN(Cc1ccc(CCCCSCC)cc1)C(=O)Nc1c(C)cc(Cl)cc1C` [1-(n-Heptyl)-1-[4-(4-ethylthiobutyl)benzyl]-3-(4-chloro-2,6-dimethylphenyl)urea], the response vs control in vivo at 0.003 % by setting is: under setting [1], 63%; under setting [2], 57%.

Consider “1-(n-Heptyl)-1-[4-(1,5-dimethylhexyl)benzyl]-3-(2,4,6-trifluoromethylphenyl)urea”, for which, under “dose .003% of the diet”, the “LS (liver sterol), percentage of control values” is recorded as 65 percentage of control values and the “SS (serum sterol), percentage of control values” was 57 percentage of control values.

In the case of `CCCCCCCN(Cc1ccc(CC(C)CC)cc1)C(=O)Nc1ccc(F)cc1F` (stereo not drawn) [1-(n-Heptyl)-1-[4-(2-methylbutyl)benzyl]-3-(2,4-difluorophenyl)urea], the response vs control in vivo at 0.01 % reads like this: under setting [3], 42%; under setting [4], 36%.

Take `CCCCCCCN(Cc1ccc(CCCC(C)C)cc1)C(=O)Nc1ccc(F)cc1F` [1-(n-Heptyl)-1-[4-(isohexyl)benzyl]-3-(2,4-difluorophenyl)urea]: the response vs control in vivo at 0.003 % is, setting by setting: under setting [1], 53%; under setting [2], 45%.

For `CCCCCCCN(Cc1ccc(CC(CC)CC)cc1)C(=O)Nc1c(F)cc(F)cc1F` [1-(n-Heptyl)-1-[4-(2-ethylbutyl)benzyl)-3-(2,4,6-trifluorophenyl)urea], the response vs control in vivo at 0.001 % runs as follows: under setting [3], 75%; under setting [4], 120%.

For `CCCCCCCN(Cc1ccc(CC(C)C(C)CC)cc1)C(=O)Nc1ccc(F)cc1F` (stereo not drawn) [1-(n-Heptyl)-1-[4-(2,3-dimethylpentyl)benzyl]-3-(2,4-difluorophenyl)urea], the response vs control in vivo at 0.01 % runs as follows: under setting [3], 63%; under setting [4], 48%.
